According to patent publication US10919935B2, “Antimicrobial peptide derived from myxinidin peptide and uses thereof” (INDUSTRY-ACADEMIC COOPERATION FOUNDATION, CHOSUN UNIVERSITY, priority 2015, dated 2021):
Residues, ends and D or L forms follow the SMILES beside them.

Key:
[1] = test system: S. aureus; experiment: Anti-biofilm activity (crystal violet); format: cell-based, Staphylococcus aureus
Description: (§1) To compare the antimicrobial activity of the peptide produced by the method of Example 1, the inventors of the present invention measured the biofilm inhibitory concentration value of the peptide showing no dissociation of bacterial cells.
(§2) Specifically, the Gram-negative bacteria and Gram-positive bacteria among the bacterial strains described in the above Table 2 were cultured in each medium to a mid-log phase. Then, after dilution to bacterial cell concentration of 5×10^5 cells/100 μl, the cells were inoculated to a microtiter plate (NUNC, USA). Thereafter, myxinidin 1, myxinidin 2, or myxinidin 3 peptides which have been synthesized in Example 1 above was diluted, 1/10 times for each, with physiological saline (PBS) solution in a 96-well plate. After adding the cells to a plate, the cells were cultured for 12 hours at 37° C. After removing the supernatant, the cells were fixed with 100% methanol and reacted for 2 hours with Crystal violet staining solution followed by rinsing for 3 times. Then, after dissolving in 95% ethanol, the absorbance was measured at a wavelength of 595 nm by using a microtiter plate reader (Merck Elisa reader, Germany) to determine the biofilm inhibitory concentration value of each bacterial strain. As a control group, myxinidin as a mother peptide was subjected to the same processes as above and the biofilm inhibitory concentration value of each bacterial strain was obtained.

[2] = test system: S. aureus; experiment: MIC at salt concentration (Example 3); format: cell-based, Staphylococcus aureus
Description: (§3) To compare the antimicrobial activity of the peptide produced by the method of Example 1, the inventors of the present invention measured the minimum growth inhibitory concentration (MIC), which is minimum concentration of the peptide showing no dissociation of bacterial cells, at salt concentration.
(§4) Specifically, the bacterial strain described in the above Table 2 was cultured in each medium to a mid-log phase. Then, after dilution to bacterial cell concentration of 2×10^5 cells/100 μl, the cells were inoculated to a microtiter plate (NUNC, USA). Thereafter, myxinidin 1, myxinidin 2, or myxinidin 3 peptides which have been synthesized in Example 1 above was diluted, 1/2 times for each, with BSA+150 mM sodium chloride (NaCl) solution, physiological saline (PBS) solution, or 10 mM sodium phosphate (SP) solution in a 96-well plate. After adding the cells to a plate, the cells were cultured for 12 hours at 37° C. By using a microtiter plate reader (Merck Elisa reader, Germany), the absorbance was measured at a wavelength of 600 nm to determine the MIC value of each bacterial strain. As a control group, myxinidin as a mother peptide was subjected to the same processes as above and the MIC value of each bacterial strain was obtained.

[3] = test system: S. aureus 3709; experiment: MIC at salt concentration (Example 3); format: cell-based, Staphylococcus aureus
Description: as §3, §4

[4] = test system: S. aureus 3114; experiment: MIC at salt concentration (Example 3); format: cell-based, Staphylococcus aureus
Description: as §3, §4

[5] = test system: Escherichia coli; experiment: MIC at salt concentration (Example 3); format: cell-based
Description: as §3, §4

[6] = test system: Escherichia coli 1238; experiment: MIC at salt concentration (Example 3); format: cell-based
Description: as §3, §4

[7] = test system: Escherichia coli 1229; experiment: MIC at salt concentration (Example 3); format: cell-based
Description: as §3, §4

[8] = test system: S. typhimurium; experiment: MIC at salt concentration (Example 3); format: cell-based, Salmonella typhimurium
Description: as §3, §4

[9] = test system: S. typhimurium 8013; experiment: MIC at salt concentration (Example 3); format: cell-based, Salmonella typhimurium
Description: as §3, §4

[10] = test system: S. typhimurium 8009; experiment: MIC at salt concentration (Example 3); format: cell-based, Salmonella typhimurium
Description: as §3, §4

[11] = test system: L. monocytogenes; experiment: MIC at salt concentration (Example 3); format: cell-based, Listeria monocytogenes
Description: as §3, §4

[12] = test system: P. aeruginosa 5018; experiment: MIC at salt concentration (Example 3); format: cell-based, Pseudomonas aeruginosa
Description: as §3, §4

[13] = test system: P. aeruginosa 3592; experiment: MIC at salt concentration (Example 3); format: cell-based, Pseudomonas aeruginosa
Description: as §3, §4

[14] = test system: P. aeruginosa; experiment: MIC at salt concentration (Example 3); format: cell-based, Pseudomonas aeruginosa
Description: as §3, §4

[15] = in vitro; format: cell-based; conditions: human, NHK cells (normal human keratinocytes)
Procedure, shortened: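 NHK keratinocytes in Epilife (60 μM calcium, 10% HKGS), seeded 1×10^4 cells/well and grown 24 h, were exposed to peptides at 3.125–25.0 μM for 24 h in 5% CO2. MTT (5 mg/ml stock) added for 4 h; crystals dissolved in DMSO and absorbance read at 560 nm as cell survival.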

[16] = test system: L. monocytogenes; experiment: Anti-biofilm activity (crystal violet); format: cell-based, Listeria monocytogenes
Description: as §1, §2

[17] = NaCl (BSA+150 mM sodium chloride)

CC[C@H](C)[C@H](NC(=O)[C@H](Cc1c[nH]c2ccccc12)NC(=O)[C@H](CCCNC(=N)N)NC(=O)[C@@H](NC(=O)[C@@H](N)CCCNC(=N)N)[C@@H](C)CC)C(=O)N[C@@H](CC(C)C)C(=O)N[C@@H](CCCNC(=N)N)C(=O)N[C@@H](Cc1ccc(O)cc1)C(=O)N[C@@H](Cc1c[nH]c2ccccc12)C(=O)N[C@@H](CCCNC(=N)N)C(=O)N[C@@H](Cc1c[nH]c2ccccc12)C(=O)N[C@@H](CO)C(N)=O [Myxinidin 3, RIRWILRYWRWS-NH2] (H-RIRWILRYWRWS-NH2; N-terminus assumed)
Biofilm forming ability ([1]; peptide 0.25 μM): 85%
Biofilm forming ability ([1]; peptide 0.5 μM): 84%
Biofilm forming ability ([1]; peptide 1 μM): 84%
Biofilm forming ability ([1]; peptide 2 μM): 71%
Biofilm forming ability ([1]; peptide 4 μM): 28%
Biofilm forming ability ([1]; peptide 8 μM): 17%
Biofilm forming ability ([1]; peptide 16 μM): 16%
Biofilm forming ability ([1]; peptide 32 μM): 14%
Antimicrobial activity (MIC) according to salt concentration [2, 17]: 0.25
Antimicrobial activity (MIC) according to salt concentration ([2]; PBS): 1
Antimicrobial activity (MIC) according to salt concentration ([2]; SP (10 mM sodium phosphate)): 1
Antimicrobial activity (MIC) according to salt concentration [3, 17]: 4
Antimicrobial activity (MIC) according to salt concentration ([3]; PBS): 4
Antimicrobial activity (MIC) according to salt concentration ([3]; SP (10 mM sodium phosphate)): 4
Antimicrobial activity (MIC) according to salt concentration [4, 17]: 16
Antimicrobial activity (MIC) according to salt concentration ([4]; PBS): 4
Antimicrobial activity (MIC) according to salt concentration ([4]; SP (10 mM sodium phosphate)): 4
Antimicrobial activity (MIC) according to salt concentration [5, 17]: 8
Antimicrobial activity (MIC) according to salt concentration ([5]; PBS): 2
Antimicrobial activity (MIC) according to salt concentration ([5]; SP (10 mM sodium phosphate)): 2
Antimicrobial activity (MIC) according to salt concentration [6, 17]: 8
Antimicrobial activity (MIC) according to salt concentration ([6]; PBS): 4
Antimicrobial activity (MIC) according to salt concentration ([6]; SP (10 mM sodium phosphate)): 2
Antimicrobial activity (MIC) according to salt concentration [7, 17]: 2
Antimicrobial activity (MIC) according to salt concentration ([7]; PBS): 2
Antimicrobial activity (MIC) according to salt concentration ([7]; SP (10 mM sodium phosphate)): 2
Antimicrobial activity (MIC) according to salt concentration [8, 17]: 2
Antimicrobial activity (MIC) according to salt concentration ([8]; PBS): 2
Antimicrobial activity (MIC) according to salt concentration ([8]; SP (10 mM sodium phosphate)): 2
Antimicrobial activity (MIC) according to salt concentration [9, 17]: 8
Antimicrobial activity (MIC) according to salt concentration ([9]; PBS): 4
Antimicrobial activity (MIC) according to salt concentration ([9]; SP (10 mM sodium phosphate)): 2
Antimicrobial activity (MIC) according to salt concentration [10, 17]: 4
Antimicrobial activity (MIC) according to salt concentration ([10]; PBS): 4
Antimicrobial activity (MIC) according to salt concentration ([10]; SP (10 mM sodium phosphate)): 2
Antimicrobial activity (MIC) according to salt concentration [11, 17]: 2
Antimicrobial activity (MIC) according to salt concentration ([11]; PBS): 4
Antimicrobial activity (MIC) according to salt concentration ([11]; SP (10 mM sodium phosphate)): 4
Antimicrobial activity (MIC) according to salt concentration [12, 17]: 8
Antimicrobial activity (MIC) according to salt concentration ([12]; PBS): 4
Antimicrobial activity (MIC) according to salt concentration ([12]; SP (10 mM sodium phosphate)): 2
Antimicrobial activity (MIC) according to salt concentration [13, 17]: 8
Antimicrobial activity (MIC) according to salt concentration ([13]; PBS): 4
Antimicrobial activity (MIC) according to salt concentration ([13]; SP (10 mM sodium phosphate)): 4
Antimicrobial activity (MIC) according to salt concentration [14, 17]: 4
Antimicrobial activity (MIC) according to salt concentration ([14]; PBS): 4
Antimicrobial activity (MIC) according to salt concentration ([14]; SP (10 mM sodium phosphate)): 4
viability at 24 h, 3.125 µM [15]: 100%
viability at 24 h, 6.25 µM [15]: 100%
viability at 24 h, 12.5 µM [15]: 100%
viability at 24 h, 25 µM [15]: 100%
Biofilm forming ability ([16]; peptide 0.25 μM): 94%
Biofilm forming ability ([16]; peptide 0.5 μM): 87%
Biofilm forming ability ([16]; peptide 1 μM): 87%
Biofilm forming ability ([16]; peptide 2 μM): 83%
Biofilm forming ability ([16]; peptide 4 μM): 22%
Biofilm forming ability ([16]; peptide 8 μM): 21%
Biofilm forming ability ([16]; peptide 16 μM): 18%
Biofilm forming ability ([16]; peptide 32 μM): 16%
